Assay results reported in patent US3985798A, “11α-HOMO-PROSTANOIC ACIDS AND ESTERS” (American Cyanamid Company, priority 1975, dated 1976).

Tested on: basal gastric acid secretion
Assay: Inhibition of Total Acid Output in the Acute Gastric Fistula Rat (inhibition of basal gastric acid secretion)
Type: in vivo, Female Sprague-Dawley rats
Settings: 10 mg./kg. intraduodenal, vs concurrent vehicle control; for Total Acid Output % Inhibition, 60"(A): sample A, 60 minutes; for Total Acid Output % Inhibition, 120"(B): sample B, 120 minutes
Text: The natural prostaglandins have a broad spectrum of biological properties. Because of these diverse effects their potential therapeutic use is limited. […] On the other hand, they do inhibit gastic acid secretion and accordingly are potentially useful for the treatment of peptic ulcers, gastric hyperacidity and gastric erosion. Inhibition of basal gastric acid secretion can be determined by the following procedure. Female Sprague-Dawley rats weighing 140-160 grams are fasted in individual cages for 18-24 hours. The rats are then lightly anesthetized with ether and their front teeth extracted to avoid destruction of the plastic cannula. A midline incision is then made and the stomach and duodenum exposed. A flanged polyvinyl tube is inserted into the fundic portion of the stomach and secured with a purse string suture line using 4-0 Mersilene. The rat is then dosed by injection of the compound into the duodenum (1.0 ml. per 100 gram body weight). After dosing, the abdominal wall and skin are closed using metal wound clips. The rat is replaced in a cage containing a longitudinal slit to allow the polyvinyl tube to hang freely. An 8 ml. plastic collecting tube is attached to the flanged cannula and hangs freely below the cage. The first 30 minute sample is discarded designating this time as zero. The collecting tube is attached again and samples removed at the end of 60 and 120 minutes. These samples are referred to as A and B in the table. The hourly samples are then transferred to a 15 ml. centrifuge and centrifuged for 5-10 minutes. Total and sediment volume are then recorded with the supernatant volume being used as volume of secretion. A 1 ml. or less aliquot is then removed and placed in a 50 ml. beaker containing 10 ml. of distilled water. This sample is then titrated using 0.01N NaOH to pH 7.0 using a Beckman zeromatic pH meter, Volume, titratable acidity (meq/L), and total acid output (ueg/hour) are recorded. Percent inhibition is determined by comparison with the appropriate control. Groups of three rats were used for preliminary testing, and groups of six rats were used for dose-response evaluations. All compounds are administered in a vehicle consisting of 0.5% methocel, 0.4% Tween 80, and saline at a constant volume of 1 ml./100 gram rat. Samples are dispersed by sonification. Percent inhibition is calculated on basis of concurrent vehicle control.
In Table A which follows is given the effect on total acid output after 120 minutes of a 10 mg./kg. intraduodenal dose of representative compounds of this invention.

SMILES	Total Acid Output % Inhibition, 60"(A)	Total Acid Output % Inhibition, 120"(B)
CCCCC[C@H](O)/C=C/[C@H]1CC=CC(=O)[C@@H]1CCCCCCC(=O)O (relative stereo) [dl-11a-homoprostaglandin A1, 9-oxo-15-hydroxy-11a-homo-10,13-trans-prostadienoic acid]	35%	33%
CCCCC[C@@H](O)/C=C/[C@H]1CC=CC(=O)[C@@H]1CCCCCCC(=O)O (relative stereo) [9-oxo-15-epi-hydroxy-11a-homo-10,13-trans-prostadienoic acid]	43%	47%
CCCCC[C@H](O)/C=C/[C@H]1C[C@H](O)CC(=O)[C@@H]1CCCCCCC(=O)O (relative stereo) [dl-11a-homoprostaglandin E1, 9-oxo-11α,15-dihydroxy-11a-homo-13-trans-prostenoic acid]	69%	74%
